Test results from paper PMC4823954, “From fighting depression to conquering tumors: a novel tricyclic thiazepine compound as a tubulin polymerization inhibitor” (Cell Death & Disease, 2016).

Assays:
FLT3(D835Y) = biological target: T1, FLT3(D835Y) (Homo sapiens, UniProt P36888, D835Y); experiment: KINOMEscan; assay type: binding; conditions: read-out: % Ctrl
T1 construct: purchased DiscoveRx KINOMEscan

H460TaxR [1] = experiment: Mitochondrial membrane potential (JC-1); assay type: cell-based, human; conditions: 2 μM, 12 h
Method: (§1) The mitochondrial membrane potential was determined using JC-1 dye (Beyotime, Beijing, China). NSCLC cells (4 × 10^4 cells in 0.5 ml) were seeded in 24-well culture plates. […] Carbonyl cyanide m-chlorophenylhydrazone (CCCP; 10 μM), a mitochondrial membrane disrupter, was used to treat cells for 20 min as a positive control. Then, the cells were incubated with 200 μl JC-1 working solution at 37 °C for 20 min. After the cells were washed in RPMI-1640 medium, they were observed and imaged using a fluorescence microscope (Olympus IX71).

H460 [2] = experiment: Mitochondrial membrane potential (JC-1); assay type: cell-based, human; conditions: H460, 2 μM, 12 h
Method: as §1

H460TaxR [3] = experiment: Cell viability assay (sulforhodamine B); assay type: cell-based, human; conditions: for EC50: Homo sapiens, H460/TaxR
Method: (§2) All biological reagents and solvents were obtained from commercial suppliers and used as recommended. The human NSCLC cell line H460 and P-gp-overexpressing drug-resistant cell line H460TaxR were cultured in RPMI-1640 medium supplemented with 10% fetal bovine serum, 100 units/ml penicillin and […] streptomycin. The NHFB cell line NHFB was cultured in DMEM with the same supplements. All cells were maintained in a 37 °C incubator with 95% humidity and 5% CO2.
(§3) The cell viability was determined using the sulforhodamine B assay.[64] In brief, cells (4000 cells in 100 μl medium) were seeded in 96-well culture plates and incubated for 24 h. The cells were treated with the compounds or with an equal volume (0.1%) of DMSO for 72 h. The cell viability was calculated using the following formula: cell viability=Atreatment/Acontrol. The EC50 values were determined using the Sigma Plot 10.0 software package (Systat Software Inc., San Jose, CA, USA).

H460 [4] = experiment: Cell viability assay (sulforhodamine B); assay type: cell-based, human; conditions: H460 cells, 72 h
Method: as §2, §3

KIT(A829P) = biological target: T2, KIT(A829P) (Homo sapiens, UniProt P10721, A829P); experiment: KINOMEscan; assay type: binding; conditions: read-out: % Ctrl
T2 construct: purchased DiscoveRx KINOMEscan

P-gp = biological target: T3, P-gp (Homo sapiens, UniProt P08183); experiment: P-gp ATPase activity assay; assay type: biochemical; conditions: compared with DMSO; TBPT 2 μM, 1 h; human cell membrane P-gp fractions
T3 construct: purchased Promega Biotech, Madison, WI, USA
Method: The P-gp ATPase activity was determined in human cell membrane P-gp fractions using a luminescence-based assay.
The P-gp ATPase activity assay was conducted using the P-gp Glo Assay System following the manufacturer's protocol (Promega Biotech, Madison, WI, USA). […] Then, the luminescence was measured using a POLARstar Galaxy luminometer (BMG Labtech, Offenburg, Germany). The change in luminescence was calculated by comparing the Na3VO4-treated samples with the other compound-treated samples. The change in luminescence change is proportional to the ATP consumption in the samples, which correlated positively with the P-gp ATPase activity.

EGFR(L861Q) = biological target: T4, EGFR(L861Q) (Homo sapiens, UniProt P00533, L861Q); experiment: KINOMEscan; assay type: binding; conditions: read-out: % Ctrl
T4 construct: purchased DiscoveRx KINOMEscan

KIT(V559D,V654A) = biological target: T5, KIT(V559D,V654A) (Homo sapiens, UniProt P10721, V559D/V654A); experiment: KINOMEscan; assay type: binding; conditions: read-out: % Ctrl
T5 construct: purchased DiscoveRx KINOMEscan

NHFB = experiment: Cell viability assay (sulforhodamine B); assay type: cell-based; conditions: Fibroblast; NHFB normal human fibroblasts, 72 h
Method: as §2, §3

[5] = human liver microsome stability; assay type: in vitro ADME; conditions: liver microsomes, read-out: T1/2 in human liver microsome (converted)
Description: As in vivo investigations are generally time consuming and expensive, it is advantageous to eliminate those compounds that are not suitable for animal experiments. One of the necessary steps is to screen the initial hits using assays testing their possible behaviors in vivo. To evaluate the drug-like properties of TBPT, a panel of in vitro assays was preformed (Table 1). The parallel artificial membrane permeability assay (PAMPA) was used to evaluate the cell permeability of the compounds. Compounds with a Pe >[…] are classified as highly permeable. […] The Caco-2 assay was used to predict the oral absorption values of the compounds in vivo. Compounds with a Caco-2 efflux ratio >2 may be subject to active efflux and should not be developed further. […] The half-life (T1/2) in human liver microsomes is used to predict the metabolism properties of compounds in vivo. […] A very long T1/2 (>24 h) increases the risk of cumulative toxicity and is not desirable. […] T1/2 in plasma indicates the stability of the drug in human blood; the high T1/2 values of these compounds indicated better stability in vivo. Plasma protein binding influences the distribution of drugs into body tissues, and compounds with high plasma protein binding (>99%) are limited in terms of the amount of free compound that are available to act on the targeted tissue. […]

[6] = biological target: T6, ABL1(Y253F)-phosphorylated (Homo sapiens, UniProt P00519, Y253F); experiment: KINOMEscan; assay type: binding; conditions: read-out: % Ctrl
T6 construct: purchased DiscoveRx KINOMEscan

[7] = biological target: T7, ABL1(H396P)-phosphorylated (Homo sapiens, UniProt P00519, H396P); experiment: KINOMEscan; assay type: binding; conditions: read-out: % Ctrl
T7 construct: purchased DiscoveRx KINOMEscan

LRRK2(G2019S) = biological target: T8, LRRK2(G2019S) (Homo sapiens, UniProt Q5S007, G2019S); experiment: KINOMEscan; assay type: binding; conditions: read-out: % Ctrl
T8 construct: purchased DiscoveRx KINOMEscan

[8] = biological target: T9, ABL1(F317I)-phosphorylated (Homo sapiens, UniProt P00519, F317I); experiment: KINOMEscan; assay type: binding; conditions: read-out: % Ctrl
T9 construct: purchased DiscoveRx KINOMEscan

[9] = biological target: T10, ABL1(F317L)-phosphorylated (Homo sapiens, UniProt P00519, F317L); experiment: KINOMEscan; assay type: binding; conditions: read-out: % Ctrl
T10 construct: purchased DiscoveRx KINOMEscan

[10] = biological target: T11, ABL1(Q252H)-phosphorylated (Homo sapiens, UniProt P00519, Q252H); experiment: KINOMEscan; assay type: binding; conditions: read-out: % Ctrl
T11 construct: purchased DiscoveRx KINOMEscan

PIK3CA(Q546K) = biological target: T12, PIK3CA(Q546K) (Homo sapiens, UniProt P42336, Q546K); experiment: KINOMEscan; assay type: binding; conditions: read-out: % Ctrl
T12 construct: purchased DiscoveRx KINOMEscan

KIT(V559D) = biological target: T13, KIT(V559D) (Homo sapiens, UniProt P10721, V559D); experiment: KINOMEscan; assay type: binding; conditions: read-out: % Ctrl
T13 construct: purchased DiscoveRx KINOMEscan
T13 sequence (P10721 26-976 V559D): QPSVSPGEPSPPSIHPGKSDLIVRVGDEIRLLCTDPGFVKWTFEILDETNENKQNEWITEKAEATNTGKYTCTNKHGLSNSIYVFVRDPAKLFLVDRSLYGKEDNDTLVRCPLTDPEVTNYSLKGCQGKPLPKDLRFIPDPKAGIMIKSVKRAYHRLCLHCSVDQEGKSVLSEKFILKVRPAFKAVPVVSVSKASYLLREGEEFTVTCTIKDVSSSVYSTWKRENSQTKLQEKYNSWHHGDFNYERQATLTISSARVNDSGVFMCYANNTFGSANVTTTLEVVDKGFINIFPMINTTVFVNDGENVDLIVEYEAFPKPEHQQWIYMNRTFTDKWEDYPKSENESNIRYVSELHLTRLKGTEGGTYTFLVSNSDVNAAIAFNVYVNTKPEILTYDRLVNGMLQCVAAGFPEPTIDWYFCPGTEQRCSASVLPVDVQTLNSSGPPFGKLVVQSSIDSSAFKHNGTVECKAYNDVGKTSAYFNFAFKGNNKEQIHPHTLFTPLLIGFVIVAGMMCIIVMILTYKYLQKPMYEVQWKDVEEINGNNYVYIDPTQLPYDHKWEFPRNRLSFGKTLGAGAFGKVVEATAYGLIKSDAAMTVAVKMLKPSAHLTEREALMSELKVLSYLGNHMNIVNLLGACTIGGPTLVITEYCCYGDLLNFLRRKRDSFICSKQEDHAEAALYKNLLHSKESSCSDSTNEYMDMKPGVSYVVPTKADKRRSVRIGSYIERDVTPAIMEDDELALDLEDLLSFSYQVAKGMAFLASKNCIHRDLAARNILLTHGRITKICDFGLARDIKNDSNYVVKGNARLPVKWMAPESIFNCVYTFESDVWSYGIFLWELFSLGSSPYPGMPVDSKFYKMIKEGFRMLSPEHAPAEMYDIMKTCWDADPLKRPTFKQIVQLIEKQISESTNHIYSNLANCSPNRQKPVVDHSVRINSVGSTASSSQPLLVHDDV

T5 sequence (P10721 26-976 V559D/V654A): as the sequence (P10721 26-976 V559D) above, with V629A counted along it
T12 sequence (P42336 whole entry Q546K): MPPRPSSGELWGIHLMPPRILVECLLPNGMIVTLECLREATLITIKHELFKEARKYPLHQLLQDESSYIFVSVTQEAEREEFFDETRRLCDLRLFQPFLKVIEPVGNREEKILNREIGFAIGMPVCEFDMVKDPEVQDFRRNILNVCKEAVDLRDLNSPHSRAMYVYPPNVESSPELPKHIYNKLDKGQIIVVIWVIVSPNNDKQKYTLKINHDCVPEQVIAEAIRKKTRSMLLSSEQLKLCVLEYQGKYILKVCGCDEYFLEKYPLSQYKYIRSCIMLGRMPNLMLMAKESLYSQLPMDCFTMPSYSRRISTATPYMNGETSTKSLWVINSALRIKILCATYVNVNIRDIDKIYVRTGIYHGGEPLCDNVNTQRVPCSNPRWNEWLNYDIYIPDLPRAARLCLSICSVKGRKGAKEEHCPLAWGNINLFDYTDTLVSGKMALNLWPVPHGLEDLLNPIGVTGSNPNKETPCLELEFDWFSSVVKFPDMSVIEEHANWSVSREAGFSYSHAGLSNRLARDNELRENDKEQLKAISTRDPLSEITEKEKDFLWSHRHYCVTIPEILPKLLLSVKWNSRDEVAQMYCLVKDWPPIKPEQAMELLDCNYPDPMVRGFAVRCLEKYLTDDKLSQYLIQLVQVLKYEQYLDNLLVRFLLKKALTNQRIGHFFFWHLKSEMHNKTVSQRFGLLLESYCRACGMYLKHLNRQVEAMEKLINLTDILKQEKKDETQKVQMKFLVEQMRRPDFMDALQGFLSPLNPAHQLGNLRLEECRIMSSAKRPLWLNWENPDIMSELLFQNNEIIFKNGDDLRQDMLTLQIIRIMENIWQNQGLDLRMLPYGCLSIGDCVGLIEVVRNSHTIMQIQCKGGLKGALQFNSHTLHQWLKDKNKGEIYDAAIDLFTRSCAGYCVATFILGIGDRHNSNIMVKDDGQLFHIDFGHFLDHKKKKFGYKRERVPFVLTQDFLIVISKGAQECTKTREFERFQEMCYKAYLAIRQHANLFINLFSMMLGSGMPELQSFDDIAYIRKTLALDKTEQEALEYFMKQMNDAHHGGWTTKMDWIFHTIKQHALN
T8 sequence (Q5S007 whole entry G2019S): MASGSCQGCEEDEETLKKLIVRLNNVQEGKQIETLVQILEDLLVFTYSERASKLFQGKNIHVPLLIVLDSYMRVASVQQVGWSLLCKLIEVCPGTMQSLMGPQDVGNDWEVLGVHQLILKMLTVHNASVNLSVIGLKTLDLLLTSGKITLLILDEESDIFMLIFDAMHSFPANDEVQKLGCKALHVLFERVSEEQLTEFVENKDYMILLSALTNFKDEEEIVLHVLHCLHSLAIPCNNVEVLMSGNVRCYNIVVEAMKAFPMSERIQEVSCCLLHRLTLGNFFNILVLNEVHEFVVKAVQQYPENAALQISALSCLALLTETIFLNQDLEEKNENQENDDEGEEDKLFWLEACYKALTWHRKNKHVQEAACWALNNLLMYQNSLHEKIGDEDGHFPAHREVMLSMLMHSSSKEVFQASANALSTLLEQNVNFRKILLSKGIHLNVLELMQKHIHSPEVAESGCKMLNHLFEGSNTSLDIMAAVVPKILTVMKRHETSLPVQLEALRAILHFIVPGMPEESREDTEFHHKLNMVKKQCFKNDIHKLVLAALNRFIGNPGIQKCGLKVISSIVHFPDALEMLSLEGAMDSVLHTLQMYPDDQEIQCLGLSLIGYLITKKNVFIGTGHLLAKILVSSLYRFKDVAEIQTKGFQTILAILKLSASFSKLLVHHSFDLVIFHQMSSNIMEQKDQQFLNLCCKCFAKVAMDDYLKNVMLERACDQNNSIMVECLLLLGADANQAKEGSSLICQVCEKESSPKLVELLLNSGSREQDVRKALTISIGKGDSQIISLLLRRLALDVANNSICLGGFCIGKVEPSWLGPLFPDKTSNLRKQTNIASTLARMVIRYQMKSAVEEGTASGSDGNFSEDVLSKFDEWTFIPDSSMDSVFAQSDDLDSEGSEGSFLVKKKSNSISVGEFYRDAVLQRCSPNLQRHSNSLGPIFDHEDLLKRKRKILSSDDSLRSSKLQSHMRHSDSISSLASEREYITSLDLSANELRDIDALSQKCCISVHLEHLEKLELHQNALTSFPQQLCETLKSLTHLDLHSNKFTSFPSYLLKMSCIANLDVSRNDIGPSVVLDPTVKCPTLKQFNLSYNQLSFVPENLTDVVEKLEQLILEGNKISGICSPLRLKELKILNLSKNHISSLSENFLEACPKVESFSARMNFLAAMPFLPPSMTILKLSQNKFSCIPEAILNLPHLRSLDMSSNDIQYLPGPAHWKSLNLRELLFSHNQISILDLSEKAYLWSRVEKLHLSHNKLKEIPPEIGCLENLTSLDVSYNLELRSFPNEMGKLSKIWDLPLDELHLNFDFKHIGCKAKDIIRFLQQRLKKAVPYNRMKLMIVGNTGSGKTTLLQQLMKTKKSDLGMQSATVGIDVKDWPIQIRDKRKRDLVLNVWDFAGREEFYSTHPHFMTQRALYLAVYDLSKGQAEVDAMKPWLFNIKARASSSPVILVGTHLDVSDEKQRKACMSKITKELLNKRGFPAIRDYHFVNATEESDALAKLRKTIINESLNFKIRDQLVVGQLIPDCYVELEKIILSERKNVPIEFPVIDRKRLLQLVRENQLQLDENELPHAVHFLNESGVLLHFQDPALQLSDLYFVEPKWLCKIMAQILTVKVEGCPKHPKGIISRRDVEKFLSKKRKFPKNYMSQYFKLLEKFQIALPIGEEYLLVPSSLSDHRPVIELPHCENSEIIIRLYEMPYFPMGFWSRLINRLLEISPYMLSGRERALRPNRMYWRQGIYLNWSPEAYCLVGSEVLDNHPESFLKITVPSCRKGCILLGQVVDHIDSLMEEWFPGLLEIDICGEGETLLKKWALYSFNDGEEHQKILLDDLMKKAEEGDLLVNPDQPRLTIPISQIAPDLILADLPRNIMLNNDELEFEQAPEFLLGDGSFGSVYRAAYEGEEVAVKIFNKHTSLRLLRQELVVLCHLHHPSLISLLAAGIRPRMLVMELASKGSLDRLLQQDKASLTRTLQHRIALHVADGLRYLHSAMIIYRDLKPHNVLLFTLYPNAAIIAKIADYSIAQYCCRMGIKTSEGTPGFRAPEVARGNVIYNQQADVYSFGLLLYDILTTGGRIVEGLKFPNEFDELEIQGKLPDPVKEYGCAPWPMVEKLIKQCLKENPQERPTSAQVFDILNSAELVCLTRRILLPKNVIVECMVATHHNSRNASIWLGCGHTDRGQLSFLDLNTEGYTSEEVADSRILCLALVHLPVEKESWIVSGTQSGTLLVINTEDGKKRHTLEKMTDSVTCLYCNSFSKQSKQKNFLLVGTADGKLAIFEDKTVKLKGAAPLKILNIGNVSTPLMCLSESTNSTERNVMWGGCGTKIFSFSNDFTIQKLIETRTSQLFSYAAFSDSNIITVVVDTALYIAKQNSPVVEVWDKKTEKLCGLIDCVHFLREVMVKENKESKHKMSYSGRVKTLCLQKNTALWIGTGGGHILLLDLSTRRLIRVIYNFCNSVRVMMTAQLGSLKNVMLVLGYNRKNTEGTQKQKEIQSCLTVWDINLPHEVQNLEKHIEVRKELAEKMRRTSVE
T2 sequence (P10721 26-976 A829P): as the sequence (P10721 26-976 V559D) above, with D534V, A804P counted along it

## Cc1ccc(C2=Nc3cccnc3S(=O)(=O)c3ccccc32)cc1 [TBPT, 6-(p-tolyl)benzo[f] pyrido[2,3-b][1,4] thiazepine 11,11-dioxide]
FLT3(D835Y); 5 μM
  remaining binding at 5 µM: 92%
FLT3(D835Y); 10 μM
  remaining binding at 10 µM: 100%
H460TaxR [1]
  mitochondrial membrane potential: decreased significantly
H460 [2]
  mitochondrial membrane potential: decreased significantly
H460TaxR [3]; EC50 in H460TaxR cells divided by EC50 in H460 cells
  Resistance Folds: 1.3
H460TaxR [3]; 72 h, H460TaxR cells
  EC50: < 0.5 µM
H460TaxR [3]; H460TaxR(+Rev), Reversan (P-gp inhibitor)
  EC50: 0.61 ± 0.26 µM
H460 [4]
  EC50: 0.45 ± 0.19 µM
H460 [4]; Homo sapiens, NCI-H460, 72 h
  EC50: < 0.5 µM
KIT(A829P); 5 μM
  remaining binding at 5 µM: 95%
KIT(A829P); 10 μM
  remaining binding at 10 µM: 96%
P-gp
  P-gp ATPase activity: did not induce P-gp ATPase activity
EGFR(L861Q); 5 μM
  remaining binding at 5 µM: 100%
EGFR(L861Q); 10 μM
  remaining binding at 10 µM: 100%
KIT(V559D,V654A); 5 μM
  remaining binding at 5 µM: 97%
KIT(V559D,V654A); 10 μM
  remaining binding at 10 µM: 90%
NHFB
  EC50: > 100 µM
[5]
  half-life: 5.18 ± 0.69 h
[6]; 5 μM
  remaining binding at 5 µM: 70%
[6]; 10 μM
  remaining binding at 10 µM: 95%
[7]; 5 μM
  remaining binding at 5 µM: 68%
[7]; 10 μM
  remaining binding at 10 µM: 92%
LRRK2(G2019S); 5 μM
  remaining binding at 5 µM: 86%
LRRK2(G2019S); 10 μM
  remaining binding at 10 µM: 99%
[8]; 5 μM
  remaining binding at 5 µM: 78%
[8]; 10 μM
  remaining binding at 10 µM: 81%
[9]; 5 μM
  remaining binding at 5 µM: 72%
[9]; 10 μM
  remaining binding at 10 µM: 98%
[10]; 5 μM
  remaining binding at 5 µM: 83%
[10]; 10 μM
  remaining binding at 10 µM: 100%
PIK3CA(Q546K); 5 μM
  remaining binding at 5 µM: 100%
PIK3CA(Q546K); 10 μM
  remaining binding at 10 µM: 94%
KIT(V559D); 5 μM
  remaining binding at 5 µM: 72%
KIT(V559D); 10 μM
  remaining binding at 10 µM: 91%
